Data taken from publication PMC8244818 (Journal of medicinal chemistry, 2021).

Legend:
[1] = ref 34 (2), ref 35 (6); cited from earlier work
[2] = cited from earlier work
[3] = system: Plasmodium yoelii; format: in vivo; conditions: P. yoelii, CF1 mice, oral gavage in PEG-400, 5 mg/kg × 4 days

Question: With COC1=CC(c2ccc[nH]2)=N/C1=C\c1cc(CCCCC(C)C)c(C)[nH]1.Cl [Compound 6, Isoheptylprodigiosin] as the compound, how does the antimicrobial activity [1] read?
Answer: Its antimicrobial activity is “moderate”.

Question: Which cytotoxicity activity [2] does the source give for CCCCCc1cc(/C=C2\N=C(c3ccc(Cc4ccc(O)cc4)[nH]3)C=C2OC)[nH]c1C.Cl [Compound 2, 4-((4’-Methoxy-5’-((5-methyl-4-pentyl-1H-pyrrol-2-yl)methylene)-1H,5’H-[2,2’-bipyrrol]-5-yl)methyl)phenol] here?
Answer: Its cytotoxicity activity is “good”.

Question: What about the antimicrobial activity [1] of the same compound?
Answer: The antimicrobial activity was “good”.

Question: And the “in vivo %parasitemia reduction on day 5 at 5 mg/kg/4d” value (from here on “in vivo %parasitemia reduction”) [3]?
Answer: The value was “did not show efficacy”.

Question: With C=CCCCCCCCCc1ccc(C2=N/C(=C\NCCC=C)C(OC)=C2)[nH]1.Cl [Compound 39, N-((5-(dec-9-en-1-yl)-4’-methoxy-1H,5’H-[2,2’-bipyrrol]-5’-ylidene)methyl)but-3-en-1-amine] as the compound, how does the “in vivo %parasitemia reduction” value [3] read?
Answer: Its value is “ineffective”.

Question: For COC1=CC2=N/C1=C\NCC/C=C/CCCCCCCCc1ccc2[nH]1.Cl [(E/Z)-7, geometric isomers of Tambjamine MYP1], which “in vivo %parasitemia reduction” value [3] is on record?
Answer: The value was “ineffective”.

Question: With CCCCc1cc(/C=C2\N=C(c3ccc(Cc4ccc(O)cc4)[nH]3)C=C2OC)[nH]c1C.Cl [Compound 3, 4-((5’-((4-Butyl-5-methyl-1H-pyrrol-2-yl)methylene)-4’-methoxy-1H,5’H-[2,2’-bipyrrol]-5-yl)methyl)phenol] as the compound, how does the “in vivo %parasitemia reduction” value [3] read?
Answer: The value was “did not show efficacy”.
